≈ marks a conversion by molar mass, not a printed value. Where two headings read alike, the source gives them in different places.
Assays:
[1] = tested on: diastolic blood pressure; assay: Prostaglandin-like hypotensive activity in anesthetized rats (minimal dose for about 10 mm. decrease in diastolic blood pressure); format: in vivo, Male Wistar strain rats; settings: Rattus norvegicus; intravenous; decrease of about 10 mm. in diastolic blood pressure
How it was run: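 Male Wistar rats (~250 g), pentobarbital 30 mg./kg. i.v. and hexamethonium 2 mg./kg. i.v., iliac artery cannulated for blood pressure. Compounds in saline-Tween 80 given i.v. at 0.1–10.0 mg./kg.; value is the minimal dose giving ~10 mm. drop in diastolic pressure.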

[2] = tested on: bronchospasms elicited by histamine; assay: Bronchodilator Activity (Konzett Assay) against histamine; format: in vivo, guinea pigs; settings: Cavia porcellus; three logarithmic cumulative intravenous doses
How it was run: (§1)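 Guinea pigs given intravenous spasmogen (5-hydroxytryptamine, histamine or acetylcholine) per Konzett procedure. ED50 derived from three logarithmic cumulative intravenous doses of test compound.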

[3] = tested on: bronchospasms elicited by acetylcholine; assay: Bronchodilator Activity (Konzett Assay) against acetylcholine; format: in vivo, guinea pigs; settings: Cavia porcellus; three logarithmic cumulative intravenous doses
How it was run: as §1

[4] = tested on: dl-PGE1-induced contraction of gerbil colon; assay: Inhibition of dl-PGE1-Induced Contraction of Gerbil Colon (prostaglandin antagonist action); format: cell-based, gerbils (Meriones unguiculatus); settings: Meriones unguiculatus, 1 min
How it was run: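 Ascending colon from male gerbils, held in De Jalon's solution at 37 °C under 95% O2/5% CO2 with 0.5 g resting tension, contraction recorded isometrically. 1 min compound exposure, then 1 min dl-PGE1 at 200 ng/ml (maximal) or 20 ng/ml (sub-maximal). Approximate ID50 taken from a concentration series against the preceding agonist-only cycle.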

[5] = tested on: gastric acid secretion; assay: Inhibition of basal Gastric Acid Secretion (Acute Gastric Fistula Rat); format: in vivo, Female Sprague-Dawley rats; settings: 10 mg./kg. intraduodenal
How it was run: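 Fasted (18-24 h) female Sprague-Dawley rats (140-160 g) with acute gastric fistula; compound given intraduodenally in 0.5% methocel/0.4% Tween 80/saline. Gastric juice collected at 60 and 120 min after a discarded 30-min sample, titrated with 0.01N NaOH to pH 7.0; percent inhibition of acid output versus controls, three rats per group.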

[6] = sub-maximal challenge, 20 ng./ml. dl-PGE1, 50% inhibition of maximum response, read-out: ID50 vs. 20 ng. of PGE1/ml.
[7] = 200 ng./ml. dl-PGE1, read-out: ID50 vs. 200 ng. of PGE1/ml.
[8] = 2 h, B: 120 minute collection, read-out: % Inhibition Total Acid Output
[9] = 2 h, B: 120 minute collection, read-out: % Inhibition Total Acidity

Row | Compound | minimal effective dose [1] [mg/kg] | ED50 [2] [mg/kg] | ED50 [3] [mg/kg] | IC50 [4, 6] [µg/mL] | IC50 [4, 7] [µg/mL] | inhibition in vivo at 10 mg/kg ([5]; 1 h, A: 60 minute collection, read-out: % Inhibition Total Acid Output) [%] | inhibition in vivo at 10 mg/kg ([5]; 1 h, A: 60 minute collection, read-out: % Inhibition Total Acidity) [%] | inhibition in vivo at 10 mg/kg [5, 8] [%] | inhibition in vivo at 10 mg/kg [5, 9] [%]
1 | CCCCCC/C=C/[C@@H]1CCCC(=O)[C@H]1CCCCCCC(=O)O (relative stereo) [9-oxo-10a-homo-13-trans-prostenoic acid] | 0.2 | 10.1 | > 10.1 | 2.5 to 5 (≈ 7.43 to 14.9 µM) | – | – | – | – | –
2 | CC/C=C\CC/C=C/[C@@H]1CCC(=O)[C@H]1CCCCCCC(=O)O (relative stereo) [9-oxo-13-trans-17-cis-prostadienoic acid] | 0.2 | 0.65 | 6 | 2.5 to 5 (≈ 7.8 to 15.6 µM) | – | – | – | – | –
3 | CCCCCC/C=C/[C@H]1CCC(=O)[C@@H]1CCCCCCC(=O)O (relative stereo) [9-oxo-13-trans-prostenoic acid] | 0.4 | 0.232 | 1.02 | 1.5 to 2 (≈ 4.65 to 6.2 µM) | 9 to 10 (≈ 27.9 to 31 µM) | – | – | – | –
4 | CCC/C=C/[C@H]1CCC(=O)[C@@H]1CCCCCCC(=O)O (relative stereo) [9-oxo-18,19,20-trinor-13-trans-prostenoic acid] | – | 0.837 | 6.42 | – | 10 to 15 (≈ 35.7 to 53.5 µM) | 55 | 20 | 55 | 52
5 | CCCCC/C=C/[C@H]1CCC(=O)[C@@H]1CCCCCCC(=O)O (relative stereo) [9-oxo-20-nor-13-trans-prostenoic acid] | 0.5 to 1 | 0.126 | 1.17 | 5 (≈ 16.2 µM) | – | – | – | – | –
6 | CC(C)CC/C=C/[C@@H]1CCC(=O)[C@H]1CCCCCCC(=O)O (relative stereo) [17-methyl-9-oxo-19,20-dinor-13-trans-prostenoic acid] | 0.5 | 1.07 | 4.3 | 0.25 to 0.5 (≈ 0.81 to 1.62 µM) | – | – | – | 53 | 51
7 | O=C(O)CCCCCC[C@H]1C(=O)CC[C@@H]1/C=C/CCCCCCCl (relative stereo) [20-chloro-9-oxo-13-trans-prostenoic acid] | 0.5 | 1.22 | 4.82 | 5 to 10 (≈ 14 to 28 µM) | – | – | – | – | –
8 | O=C(O)CCCCCC[C@@H]1C(=O)CC[C@H]1/C=C/CCCCl (relative stereo) [20-chloro-9-oxo-17,18,19-trinor-13-trans-prostenoic acid] | 2 to 8 | 0.928 | 3.87 | 1 to 2.5 (≈ 3.18 to 7.94 µM) | – | – | – | – | –
9 | CCCCCCC/C=C/[C@@H]1CCC(=O)[C@H]1CCCCCCC(=O)O (relative stereo) [20-methyl-9-oxo-13-trans-prostenoic acid] | 0.5 to 2 | 0.126 | 2.44 | 2 to 2.5 (≈ 5.94 to 7.43 µM) | – | – | – | – | –
